Values quoted from earlier work, collected in patent US10945947B2, “Formulations for intravenous administration” (GLAXOSMITHKLINE INTELLECTUAL PROPERTY (NO.2) LIMITED, priority 2015, dated 2021).
Counter-ions that a name gives are not always drawn.

Conditions: at a higher pH, after oral administration

## Cc1c(F)cccc1NC(=O)Nc1ccc(Cl)c(S(=O)(=O)[C@H]2CCCNC2)c1O [hydrobromide salt of danirixin]
  solubility and dissolution profiles compared to the free base: improved solubility and dissolution profiles
